Experiment [1] concerns the target T1, human full length PIK3KA H1047R mutant (p110α/p85α complex) (Homo sapiens, UniProt P42336, H1047R).
T1 construct: Recombinant, catalytically active human full length PIK3KA Wild-type and H1047R mutant were purchased; 6xHis (N); purchased EMD Millipore Sigma 14-792M
Nature of the experiment: PI3K-Alpha Kinase (PIK3CA) biochemical activity, H1047R mutant (ADP-Glo). The note with it: 20 uM ATP. The gist of the method:
(§1)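 ADP formation, measured by ADP-Glo luminescence after reaction to about 10% ATP conversion at 27° C., gives 10-point 4-parameter IC50 curves normalized to no-enzyme and DMSO controls. Lipid substrate was PIP2diC8 or Soy PI at 50 uM, with 20 uM ATP. WT or H1047R p110α/p85α complex (1-5 nM) was preincubated 1 h with compound.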
(ADP-Glo turns the ADP formed in a reaction into a luminescent signal.)

In experiment [2] the target is T2, human full length PIK3KA Wild-type (p110α/p85α complex) (Homo sapiens, UniProt P42336).
T2 construct: Recombinant, catalytically active human full length PIK3KA Wild-type and H1047R mutant were purchased; 6xHis (N); purchased EMD Millipore Sigma 14-602M
The experiment in a line: PI3K-Alpha Kinase (PIK3CA) biochemical activity, wild-type (ADP-Glo). The settings on record: 20 uM ATP. Summed up:
as §1

For experiment [3], the target named is PI3K-α (PIK3CA) in MDA-MB-453 cells (Homo sapiens, UniProt P42336). The experiment in a line: PI3K-Alpha Kinase (PIK3CA) activity in vitro cell based assay (AlphaLisa SureFire). The settings on record: 0% FBS, 3 hours treatment, read-out: PI3K-α (PIK3CA) in vitro cell based assay IC50. The gist of the method:
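Serum-free MDA-MB-453 cells with 1 μg/mL insulin treated 3 h with a 10-point compound series in 0.3% DMSO; lysates analysed by AlphaLisa SureFire. Relative IC50 from 4-parameter fit of % inhibition versus DMSO (max) and 1 μM GDC-0032 (min) controls, duplicates.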
For orientation: Bead proximity is the source of the signal in Alpha formats.

Where only a bound is given, the exact number is not on record here.

T1 sequence (P42336 whole entry H1047R): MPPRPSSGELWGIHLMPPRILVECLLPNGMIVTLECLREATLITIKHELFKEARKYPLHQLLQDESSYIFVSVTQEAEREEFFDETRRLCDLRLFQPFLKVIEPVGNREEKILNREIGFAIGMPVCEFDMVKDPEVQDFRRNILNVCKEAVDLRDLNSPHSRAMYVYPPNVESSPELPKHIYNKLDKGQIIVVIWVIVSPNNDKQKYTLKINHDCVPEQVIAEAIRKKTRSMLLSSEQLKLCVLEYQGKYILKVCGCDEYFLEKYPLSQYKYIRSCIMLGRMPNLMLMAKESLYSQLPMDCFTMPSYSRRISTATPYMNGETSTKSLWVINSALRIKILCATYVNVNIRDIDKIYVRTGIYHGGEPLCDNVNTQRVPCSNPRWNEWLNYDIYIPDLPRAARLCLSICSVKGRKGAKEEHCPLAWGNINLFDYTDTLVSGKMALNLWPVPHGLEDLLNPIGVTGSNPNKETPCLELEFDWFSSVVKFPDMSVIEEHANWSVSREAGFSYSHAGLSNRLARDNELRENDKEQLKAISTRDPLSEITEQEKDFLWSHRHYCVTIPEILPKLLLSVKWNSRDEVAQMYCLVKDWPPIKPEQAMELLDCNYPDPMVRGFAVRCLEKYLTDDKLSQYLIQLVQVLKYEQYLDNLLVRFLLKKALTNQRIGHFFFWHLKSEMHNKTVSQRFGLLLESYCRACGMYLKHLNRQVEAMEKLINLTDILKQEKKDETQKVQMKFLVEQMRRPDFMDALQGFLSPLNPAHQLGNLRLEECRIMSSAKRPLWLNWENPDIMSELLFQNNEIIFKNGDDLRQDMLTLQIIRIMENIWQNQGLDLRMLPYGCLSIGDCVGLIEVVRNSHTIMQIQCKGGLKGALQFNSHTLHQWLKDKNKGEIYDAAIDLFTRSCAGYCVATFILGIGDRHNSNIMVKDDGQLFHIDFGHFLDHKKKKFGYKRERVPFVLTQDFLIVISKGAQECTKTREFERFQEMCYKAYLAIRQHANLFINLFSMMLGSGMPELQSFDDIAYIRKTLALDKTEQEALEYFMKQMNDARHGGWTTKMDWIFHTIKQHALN
T1 sequence (P27986 whole entry partner): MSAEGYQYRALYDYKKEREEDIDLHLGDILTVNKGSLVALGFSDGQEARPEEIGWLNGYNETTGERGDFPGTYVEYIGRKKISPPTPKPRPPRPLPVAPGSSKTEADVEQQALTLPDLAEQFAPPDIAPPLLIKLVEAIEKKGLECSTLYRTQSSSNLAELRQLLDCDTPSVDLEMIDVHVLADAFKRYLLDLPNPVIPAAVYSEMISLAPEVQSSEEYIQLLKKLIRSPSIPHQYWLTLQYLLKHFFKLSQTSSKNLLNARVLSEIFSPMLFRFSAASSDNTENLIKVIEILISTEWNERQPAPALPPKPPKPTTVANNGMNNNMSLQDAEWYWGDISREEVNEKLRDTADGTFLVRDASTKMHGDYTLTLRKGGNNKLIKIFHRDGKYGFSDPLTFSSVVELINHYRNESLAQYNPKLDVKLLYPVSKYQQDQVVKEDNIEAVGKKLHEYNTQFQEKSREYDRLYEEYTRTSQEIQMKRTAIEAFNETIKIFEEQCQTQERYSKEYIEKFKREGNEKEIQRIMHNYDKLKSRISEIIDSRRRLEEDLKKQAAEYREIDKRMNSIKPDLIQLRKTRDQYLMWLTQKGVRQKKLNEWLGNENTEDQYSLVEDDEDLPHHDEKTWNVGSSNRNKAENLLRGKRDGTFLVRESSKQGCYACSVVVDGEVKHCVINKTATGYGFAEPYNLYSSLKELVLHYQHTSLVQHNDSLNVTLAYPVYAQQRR
Sequence of PI3K-α (PIK3CA) in MDA-MB-453 cells (P42336 whole entry): as the sequence (P42336 whole entry H1047R) above, with R1047H counted along it
Sequence of PI3K-α (PIK3CA) in MDA-MB-453 cells (P27986 2-724, further chain): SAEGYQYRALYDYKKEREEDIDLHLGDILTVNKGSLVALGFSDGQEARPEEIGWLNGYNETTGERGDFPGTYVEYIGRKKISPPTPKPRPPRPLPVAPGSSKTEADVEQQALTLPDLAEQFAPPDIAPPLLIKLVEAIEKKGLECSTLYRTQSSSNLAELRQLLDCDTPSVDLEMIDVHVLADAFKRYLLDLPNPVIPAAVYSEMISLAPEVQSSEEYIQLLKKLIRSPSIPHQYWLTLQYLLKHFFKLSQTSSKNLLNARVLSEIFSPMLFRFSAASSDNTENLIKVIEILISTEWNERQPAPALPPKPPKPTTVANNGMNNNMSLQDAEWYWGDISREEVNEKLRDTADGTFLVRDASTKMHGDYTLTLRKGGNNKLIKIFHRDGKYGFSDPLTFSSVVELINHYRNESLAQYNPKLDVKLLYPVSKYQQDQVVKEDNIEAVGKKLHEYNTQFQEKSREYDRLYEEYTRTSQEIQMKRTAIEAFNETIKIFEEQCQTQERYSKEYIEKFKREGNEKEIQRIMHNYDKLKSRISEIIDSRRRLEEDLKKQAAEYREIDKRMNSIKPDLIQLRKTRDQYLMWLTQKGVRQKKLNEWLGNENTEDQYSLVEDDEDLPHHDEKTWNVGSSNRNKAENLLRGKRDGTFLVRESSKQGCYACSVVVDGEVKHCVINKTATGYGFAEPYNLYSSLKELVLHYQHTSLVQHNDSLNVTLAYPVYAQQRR

Usually IC50 stands for the concentration at which inhibition is half-maximal. As for `COc1cccc(-c2cc(=O)c3cc(C)cc(C(C)Nc4ccccc4C(=O)O)c3o2)n1` (single isomer, unassigned; isomer 1) [Example 21, 2-[1-[2-(6-Methoxy-2-pyridyl)-6-methyl-4-oxo-chromen-8-yl]ethylamino]benzoic acid, Isomer 1], the IC50 is 5000 to 10000 nM in experiment [1] (Soy PI lipid substrate), more than 10000 nM in experiment [2] (Soy PI lipid substrate) and more than 500 nM in experiment [3].
For `Cc1cc(C(C)Nc2ccccc2C(=O)O)c2oc(-c3ccccn3)c(C)c(=O)c2c1` (single isomer, unassigned; isomer 1) [Example 24, 2-[1-[3,6-Dimethyl-4-oxo-2-(2-pyridyl)chromen-8-yl]ethylamino]benzoic acid, Isomer 1], in that order: less than 500 nM, 1000 to 5000 nM and less than 50 nM.
On to `Cc1cc(C(C)Nc2ccccc2C(=O)O)c2oc(-c3cccnc3)c(C)c(=O)c2c1` (single isomer, unassigned; isomer 1) [Example 25, 2-[1-[3,6-Dimethyl-4-oxo-2-(3-pyridyl)chromen-8-yl]ethylamino]benzoic acid, Isomer 1], for which the half-maximal inhibitory concentration (IC50) is less than 500 nM in experiment [1] (Soy PI lipid substrate), 500 to 1000 nM in experiment [2] (Soy PI lipid substrate) and less than 50 nM in experiment [3].
Regarding `Cc1cc(C(C)Nc2ccccc2C(=O)O)c2oc(-c3ccc(OC(C)C)nc3)cc(=O)c2c1` (single isomer, unassigned; isomer 1) [Example 30, 2-[1-[2-(6-Isopropoxy-3-pyridyl)-6-methyl-4-oxo-chromen-8-yl]ethylamino]benzoic acid, Isomer 1], the 50% inhibitory concentration (IC50) in experiment [1] (PIP2diC8 lipid substrate) was 5000 to 10000 nM; in experiment [2] (PIP2diC8 lipid substrate), more than 10000 nM; in experiment [3], more than 500 nM.
`Cc1cc(C(C)Nc2ccccc2C(=O)O)c2oc(-c3ccc(F)nc3)cc(=O)c2c1` (single isomer, unassigned; isomer 1) [Example 35, 2-[1-[2-(6-Fluoro-3-pyridyl)-6-methyl-4-oxo-chromen-8-yl]ethylamino]benzoic acid, Isomer 1]: the half-inhibitory concentration (IC50) in experiment [1] (Soy PI lipid substrate) is more than 10000 nM; in experiment [2] (Soy PI lipid substrate), more than 10000 nM; in experiment [3] it was more than 500 nM.
Regarding `Cc1cc(C(C)Nc2ccccc2C(=O)O)c2oc(-c3ccc(C(F)(F)F)nc3)cc(=O)c2c1` (single isomer, unassigned; isomer 1) [Example 37, 2-[1-[6-Methyl-4-oxo-2-[6-(trifluoromethyl)-3-pyridyl]chromen-8-yl]ethylamino]benzoic acid, Isomer 1], the values for the IC50 in experiment [1] (Soy PI lipid substrate), in experiment [2] (Soy PI lipid substrate) and in experiment [3] were more than 10000 nM, more than 10000 nM and more than 500 nM, respectively.
As for `Cc1cc(C(C)Nc2ccccc2C(=O)O)c2oc(-c3ccc(S(C)(=O)=O)nc3)cc(=O)c2c1` (single isomer, unassigned; isomer 1) [Example 39, 2-[1-[6-Methyl-2-(6-methylsulfonyl-3-pyridyl)-4-oxo-chromen-8-yl]ethylamino]benzoic acid, Isomer 1], the values for the 50% inhibitory concentration (IC50) in experiment [1] (Soy PI lipid substrate), in experiment [2] (Soy PI lipid substrate) and in experiment [3] were more than 10000 nM, more than 10000 nM and more than 500 nM, respectively.
Consider `Cc1cc(C(C)Nc2ccccc2C(=O)O)c2oc(-c3cnc(OC(C)C)nc3)cc(=O)c2c1` (single isomer, unassigned; isomer 1) [Example 41, 2-[1-[2-(2-Isopropoxypyrimidin-5-yl)-6-methyl-4-oxo-chromen-8-yl]ethylamino]benzoic acid, Isomer 1], for which the figures for the IC50 in experiment [1] (Soy PI lipid substrate), in experiment [2] (Soy PI lipid substrate) and in experiment [3] were more than 10000 nM, more than 10000 nM and more than 500 nM, respectively.
Take `Cc1cc(C(C)Nc2ccccc2C(=O)O)c2oc(-c3cncc(F)c3)c(C)c(=O)c2c1` (single isomer, unassigned; isomer 1) [Example 45, 2-[1-[2-(5-Fluoro-3-pyridyl)-3,6-dimethyl-4-oxo-chromen-8-yl]ethylamino]benzoic acid, Isomer 1]: the results for the IC50 in experiment [1] (Soy PI lipid substrate), in experiment [2] (Soy PI lipid substrate) and in experiment [3] were less than 500 nM, 500 to 1000 nM and less than 50 nM, respectively.
In the same order, the values of `Cc1cc(C(C)Nc2ccccc2C(=O)O)c2oc(-c3cnn(-c4cccnc4)c3)cc(=O)c2c1` (single isomer, unassigned; isomer 1) [Example 49, 2-[1-[6-Methyl-4-oxo-2-[1-(3-pyridyl)pyrazol-4-yl]chromen-8-yl]ethylamino]benzoic acid, Isomer 1] are more than 10000 nM, more than 10000 nM and more than 500 nM.
In the same order, the values of `Cc1cc(C(C)Nc2ccc(Cl)nc2C(=O)O)c2oc(-c3ccccn3)c(C)c(=O)c2c1` (single isomer, unassigned; isomer 1) [Example 60, 6-Chloro-3-[1-[3,6-dimethyl-4-oxo-2-(2-pyridyl)chromen-8-yl]ethylamino]pyridine-2-carboxylic acid, Isomer 1] are less than 500 nM, 500 to 1000 nM and less than 50 nM.
In the same order, the values of `Cc1c(-c2ccccn2)oc2c(C(C)Nc3ccc(Cl)nc3C(=O)O)cc(C(F)(F)F)cc2c1=O` (single isomer, unassigned; isomer 1) [Example 61, 6-Chloro-3-[1-[3-methyl-4-oxo-2-(2-pyridyl)-6-(trifluoromethyl)chromen-8-yl]ethylamino]pyridine-2-carboxylic acid, Isomer 1] are less than 500 nM, 500 to 1000 nM and less than 50 nM.
As for `CC(Nc1ccccc1C(=O)O)c1cc(C(F)(F)F)cc2c(=O)cc(-c3ccccn3)oc12` (single isomer, unassigned; isomer 1) [Example 76, 2-[1-[4-Oxo-2-(2-pyridyl)-6-(trifluoromethyl)chromen-8-yl]ethylamino]benzoic acid, Isomer 1], the half-maximal inhibitory concentration (IC50) in experiment [1] (Soy PI lipid substrate) is less than 500 nM; in experiment [2] (Soy PI lipid substrate), 5000 to 10000 nM; in experiment [3], 50 to 100 nM.
In the same order, the values of `Cc1c(-c2cncc(F)c2)oc2c(C(C)Nc3ccc(Cl)nc3C(=O)O)cc(C(F)(F)F)cc2c1=O` (single isomer, unassigned; isomer 1) [Example 97, 6-Chloro-3-[1-[2-(5-fluoro-3-pyridyl)-3-methyl-4-oxo-6-(trifluoromethyl)chromen-8-yl]ethylamino]pyridine-2-carboxylic acid, Isomer 1] are less than 500 nM, 1000 to 5000 nM and less than 50 nM.
For `Cc1cc(C(C)Nc2cccc(F)c2C(=O)O)c2oc(-c3ccccn3)cc(=O)c2c1` (single isomer, unassigned; isomer 1) [Example 110, 2-Fluoro-6-[1-[6-methyl-4-oxo-2-(2-pyridyl)chromen-8-yl]ethylamino]benzoic acid, Isomer 1], in that order: less than 500 nM, 1000 to 5000 nM and 100 to 500 nM.
In the same order, the values of `Cc1cc(C(C)Nc2cccc(F)c2C(=O)O)c2oc(-c3cnn(-c4ccc(C#N)cc4)c3)cc(=O)c2c1` (single isomer, unassigned; isomer 1) [Example 112, 2-[1-[2-[1-(4-Cyanophenyl)pyrazol-4-yl]-6-methyl-4-oxo-chromen-8-yl]ethylamino]-6-fluoro-benzoic acid, Isomer 1] are 5000 to 10000 nM, more than 10000 nM and more than 500 nM.
For the compound `Cc1cc(C(C)Nc2ccc(F)c(F)c2C(=O)O)c2oc(-c3cnn(-c4ccc(C#N)cc4)c3)cc(=O)c2c1` (single isomer, unassigned; isomer 1) [Example 114, 6-[1-[2-[1-(4-Cyanophenyl)pyrazol-4-yl]-6-methyl-4-oxo-chromen-8-yl]ethylamino]-2,3-difluoro-benzoic acid, Isomer 1], the half-inhibitory concentration (IC50) in experiment [1] (Soy PI lipid substrate) was 1000 to 5000 nM; in experiment [2] (Soy PI lipid substrate), 5000 to 10000 nM; in experiment [3], more than 500 nM.
Regarding `Cc1cc(C(C)Nc2ccc(Cl)nc2C(=O)O)c2oc(-c3cccnc3)c(C)c(=O)c2c1` (single isomer, unassigned; isomer 1) [Example 115, 6-Chloro-3-[1-[3,6-dimethyl-4-oxo-2-(3-pyridyl)chromen-8-yl]ethylamino]pyridine-2-carboxylic acid, Isomer 1], the IC50 was less than 500 nM in experiment [1] (Soy PI lipid substrate), 500 to 1000 nM in experiment [2] (Soy PI lipid substrate) and less than 50 nM in experiment [3].
For `Cc1cc(C(C)Nc2cccnc2C(=O)O)c2oc(-c3cccnc3)c(C)c(=O)c2c1` (single isomer, unassigned; isomer 1) [Example 116, 3-[1-[3,6-Dimethyl-4-oxo-2-(3-pyridyl)chromen-8-yl]ethylamino]pyridine-2-carboxylic acid, Isomer 1], in that order: less than 500 nM, 5000 to 10000 nM and 50 to 100 nM.
In the same order, the values of `Cc1cc(C(C)Nc2ccc(C(F)(F)F)nc2C(=O)O)c2oc(-c3cccnc3)c(C)c(=O)c2c1` (single isomer, unassigned; isomer 1) [Example 117, 3-[1-[3,6-Dimethyl-4-oxo-2-(3-pyridyl)chromen-8-yl]ethylamino]-6-(trifluoromethyl)pyridine-2-carboxylic acid, Isomer 1] are less than 500 nM, 1000 to 5000 nM and less than 50 nM.
Turning to `Cc1cc(C(C)Nc2ccc(C)nc2C(=O)O)c2oc(-c3cccnc3)c(C)c(=O)c2c1` (single isomer, unassigned; isomer 1) [Example 118, 3-[1-[3,6-Dimethyl-4-oxo-2-(3-pyridyl)chromen-8-yl]ethylamino]-6-methyl-pyridine-2-carboxylic acid, Isomer 1], the IC50 in experiment [1] (Soy PI lipid substrate) was less than 500 nM; in experiment [2] (Soy PI lipid substrate), 1000 to 5000 nM; in experiment [3], 50 to 100 nM.
